By Ki is commonly meant a measure of affinity in units of concentration, obtained from inhibition or displacement.

Sequence of human IRAK4 (Q9NWZ3 whole entry, the tested form may be a part): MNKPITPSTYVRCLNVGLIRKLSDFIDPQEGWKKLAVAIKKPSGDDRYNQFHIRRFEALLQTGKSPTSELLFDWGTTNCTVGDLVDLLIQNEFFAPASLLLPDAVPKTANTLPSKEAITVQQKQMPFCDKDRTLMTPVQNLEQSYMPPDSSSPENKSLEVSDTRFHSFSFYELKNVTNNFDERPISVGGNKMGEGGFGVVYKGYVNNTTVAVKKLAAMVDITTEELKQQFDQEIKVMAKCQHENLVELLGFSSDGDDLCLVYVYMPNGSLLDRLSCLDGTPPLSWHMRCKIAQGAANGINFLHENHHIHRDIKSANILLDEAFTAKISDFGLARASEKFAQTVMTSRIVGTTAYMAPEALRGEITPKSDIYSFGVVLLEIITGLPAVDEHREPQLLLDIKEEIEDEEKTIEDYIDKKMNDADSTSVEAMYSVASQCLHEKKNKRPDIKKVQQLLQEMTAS

This assay deals with human IRAK4 (Homo sapiens (Human), UniProt Q9NWZ3). The assay is described as follows: IRAK4 kinase inhibition, Transcreener fluorescence polarization (ADP detection). Type of assay: biochemical. The conditions noted are these: recombinant full-length His6-IRAK4 1.25 nM; 125 μM ATP; 125 μM peptide; 90 min; Ki computed using ATP Km 642 μM. As to the method:
Compounds were assayed for inhibition of human IRAK4 and IRAK1 catalytic activity using recombinant enzyme produced from insect cells. Full-length IRAK4 protein, carrying an N-terminal His6-Tag, was obtained from Life Technologies (Carlsbad, Calif., USA). The IRAK1 construct was produced internally and was comprised of IRAK1 residues Arg194 to Ser712, preceded by an NH2-terminal His6 tag and the coding sequence for glutathione-S-transferase.
Kinase activities were assayed using the Transcreener-Fluorecescence polarization platform (BelBrook Labs, Madison, Wis., USA) that measures amounts of the reaction product, ADP.
384 well assay plates spotted with compound received 4 μl of a 2× substrate (ATP+peptide) mix in reaction buffer, followed by 4 μl of 2× enzyme diluted in reaction buffer.
`C[C@H](O)c1cccc(C(=O)Nc2cc3c(cc2N2CCOCC2)C(=O)N(C[C@@H](F)C(C)(C)O)C3)n1` (racemic) [Example 22, N-[6-morpholino-1-oxo-2-[rac-(2R)-2-fluoro-3-hydroxy-3-methyl-butyl]isoindolin-5-yl]-6-[rac-(1S)-1-hydroxyethyl] pyridine-2-carboxamide]: the inhibitory constant (Ki) was 9.2 nM.

Regarding `CN(C)c1cc2c(cc1NC(=O)c1cccc(OC3CCNC3)n1)CN(C[C@@H](F)C(C)(C)O)C2=O` (stereo partly drawn) [Example 13, N-[6-(Dimethylamino)-2-[(2R)-2-fluoro-3-hydroxy-3-methyl-butyl]-1-oxo-isoindolin-5-yl]-6-pyrrolidin-3-yloxy-pyridine-2-carboxamide], the Ki came out at 5.8 nM.

For `CC(C)(O)[C@H](F)CN1Cc2cc(NC(=O)c3cnc4cccnn34)c(N3CCOCC3)cc2C1=O` [Example 1, (R)—N-(2-(2-Fluoro-3-hydroxy-3-methylbutyl)-6-morpholino-1-oxoisoindolin-5-yl)imidazo[1,2-b]pyridazine-3-carboxamide], the inhibition constant Ki turned out to be 5.1 nM.

`CC(C)(O)[C@H](F)CN1Cc2cc(NC(=O)c3cccc(CC(F)(F)F)n3)c(N3CCOCC3)cc2C1=O` (racemic) [Example 25, N-[6-morpholino-1-oxo-2-[rac-(2R)-2-fluoro-3-hydroxy-3-methyl-butyl]isoindolin-5-yl]-6-(2,2,2-trifluoroethyl)pyridine-2-carboxamide]: the inhibitory constant (Ki) is 6.5 nM.

Consider `C[C@H]1COCCN1c1nc(C(=O)Nc2cc3c(cc2N2CCOCC2)C(=O)N(C[C@@H](F)C(C)(C)O)C3)co1` [Example 10, N-[2-[(2R)-2-Fluoro-3-hydroxy-3-methyl-butyl]-6-morpholino-1-oxo-isoindolin-5-yl]-2-[(3S)-3-methylmorpholin-4-yl]oxazole-4-carboxamide], for which the inhibition constant Ki was 7.6 nM.

`CC(C)(O)[C@H](F)CN1Cc2cc(NC(=O)c3cccc(C(F)(F)F)n3)c(N3CCOCC3)cc2C1=O` [Example 17, (R)—N-(2-(2-Fluoro-3-hydroxy-3-methylbutyl)-6-morpholino-1-oxoisoindolin-5-yl)-6-(trifluoromethyl)picolinamide]: the Ki is 2.5 nM.

Consider `CC(C)(O)[C@H](F)CN1Cc2cc(NC(=O)c3cccc4[nH]cnc34)c(N3CCOCC3)cc2C1=O` [Example 32, N-[2-[(2R)-2-Fluoro-3-hydroxy-3-methyl-butyl]-6-morpholino-1-oxo-isoindolin-5-yl]-1H-benz-imidazole-4-carboxamide], for which the Ki stood at 1.1 nM.

`CCn1cccc(C(=O)Nc2cc3c(cc2N2CCOCC2)C(=O)N(C[C@@H](F)C(C)(C)O)C3)c1=O` [Example 5, (R)-1-Ethyl-N-(2-(2-fluoro-3-hydroxy-3-methylbutyl)-6-morpholino-1-oxoisoindolin-5-yl)-2-oxo-1,2-dihydropyridine-3-carboxamide]: the Ki was 5.6 nM.

For `CO[C@@H](C)c1cccc(C(=O)Nc2cc3c(cc2N2CCOCC2)C(=O)N(C[C@@H](F)C(C)(C)O)C3)n1` (racemic) [Example 24, N-[6-morpholino-1-oxo-2-[rac-(2R)-2-fluoro-3-hydroxy-3-methyl-butyl]isoindolin-5-yl]-6-[rac-(1S)-1-methoxyethyl] pyridine-2-carboxamide], the Ki is 33 nM.

With `C[C@@H]1COCCN1c1nc(C(=O)Nc2cc3c(cc2N2CCOCC2)C(=O)N(C[C@@H](F)C(C)(C)O)C3)co1` (racemic) [Example 16, N-(2-((R)-2-fluoro-3-hydroxy-3-methylbutyl)-6-morpholino-1-oxoisoindolin-5-yl)-2-((R)-20-methyl-morpholino) oxazole-4-carboxamide], the inhibition constant (Ki) was found to be 7 nM.

Regarding `Cn1cccc(C(=O)Nc2cc3c(cc2N2CCOCC2)C(=O)N(C[C@@H](F)C(C)(C)O)C3)c1=O` [Example 4, (R)-N-(2-(2-Fluoro-3-hydroxy-3-methylbutyl)-6-morpholino-1-oxoisoindolin-5-yl)-1-methyl-2-oxo-1,2-dihydropyridine-3-carboxamide], the inhibition constant Ki is 8 nM.

On to `CO[C@H](C)c1cccc(C(=O)Nc2cc3c(cc2N2CCOCC2)C(=O)N(C[C@@H](F)C(C)(C)O)C3)n1` (racemic) [Example 23, N-[6-morpholino-1-oxo-2-[rac-(2R)-2-fluoro-3-hydroxy-3-methyl-butyl]isoindolin-5-yl]-6-[rac-(1R)-1-methoxyethyl] pyridine-2-carboxamide], for which the Ki is 12 nM.

For `Cn1ncc(C(=O)Nc2cc3c(cc2N2CCOCC2)C(=O)N(C[C@@H](F)C(C)(C)O)C3)c1Cl` [Example 33, 5-Chloro-N-[2-[(2R)-2-fluoro-3-hydroxy-3-methyl-butyl]-6-morpholino-1-oxo-isoindolin-5-yl]-1-methyl-pyrazole-4-carboxamide], the Ki is 51 nM.

`CC(C)(O)[C@H](F)CN1Cc2cc(NC(=O)c3ccc[nH]c3=O)c(N3CCOCC3)cc2C1=O` [Example 3, (R)-N-(2-(2-Fluoro-3-hydroxy-3-methylbutyl)-6-morpholino-1-oxoisoindolin-5-yl)-2-oxo-1,2-dihydropyridine-3-carboxamide]: the inhibitory constant (Ki) was 8.2 nM.

Take `CC(C)Oc1cccc(C(=O)Nc2cc3c(cc2N(C)C)C(=O)N(C[C@@H](F)C(C)(C)O)C3)n1` [Example 11, N-[6-(Dimethylamino)-2-[(2R)-2-fluoro-3-hydroxy-3-methyl-butyl]-1-oxo-isoindolin-5-yl]-6-isopropoxy-pyridine-2-carboxamide]: the inhibition constant Ki came to 21 nM.

`C[C@@H](O)c1cccc(C(=O)Nc2cc3c(cc2N2CCOCC2)C(=O)N(C[C@@H](F)C(C)(C)O)C3)n1` (racemic) [Example 21, N-[6-morpholino-1-oxo-2-[rac-(2R)-2-fluoro-3-hydroxy-3-methyl-butyl]isoindolin-5-yl]-6-[rac-(1R)-1-hydroxyethyl] pyridine-2-carboxamide]: the inhibitory constant (Ki) came to 1.7 nM.

Regarding `Cn1ccn2ncc(C(=O)Nc3cc4c(cc3N3CCOCC3)C(=O)N(C[C@@H](F)C(C)(C)O)C4)c2c1=O` [Example 26, N-[2-[(2R)-2-Fluoro-3-hydroxy-3-methyl-butyl]-6-morpholino-1-oxo-isoindolin-5-yl]-5-methyl-4-oxo-pyrazolo [1,5-a] pyrazine-3-carboxamide], the inhibitory constant (Ki) was found to be 47 nM.

For the molecule `CC(C)(O)[C@H](F)CN1Cc2cc(NC(=O)c3coc(N4CCOCC4)n3)c(N3CCOCC3)cc2C1=O` [Example 15, (R)-N-(2-(2-Fluoro-3-hydroxy-3-methylbutyl)-6-morpholino-1-oxoisoindolin-5-yl)-2-morpholino-oxazole-4-carboxamide], the Ki was 4.6 nM.

As for `COc1cccc(C(=O)Nc2cc3c(cc2N(C)C)C(=O)N(C[C@@H](F)C(C)(C)O)C3)n1` [Example 19, N-[6-(Dimethyl-amino)-2-[(2R)-2-fluoro-3-hydroxy-3-methyl-butyl]-1-oxo-isoindolin-5-yl]-6-methoxy-pyridine-2-carboxamide], the inhibition constant Ki amounted to 1.5 nM.

For `Cc1ccc(-c2cc3c(cc2NC(=O)c2cnc(C)o2)CN(C[C@@H](F)C(C)(C)O)C3=O)nc1` [Example 14, (R)-N-(2-(2-Fluoro-3-hydroxy-3-methylbutyl)-6-(5-methyl-pyridin-2-yl)-1-oxoisoindolin-5-yl)-2-methyloxazole-5-carboxamide], the Ki stood at 4.2 nM.
